Experimental data taken from patent US20230031406A1, “COMPOUNDS AND COMPOSITIONS FOR TREATING CONDITIONS ASSOCIATED WITH NLRP ACTIVITY” (Novartis AG, priority 2018, published 2023).
pIC50: −log10 of the molar value. Where two headings read alike, the source gives them in different places. Each block holds one compound with its values, some of them ahead of it.

Tested on: PMA-differentiated THP-1 cells
Assay: IL-1β production in PMA-differentiated THP-1 cells stimulated with gramicidin (hTHP-1 assay containing 2% fetal bovine serum; Procedures 1 and 2)
Assay type: cell-based, human
Conditions: 2% fetal bovine serum
Description: The following protocol is suitable for testing the activity of the compounds disclosed herein. Procedure 1: IL-1β Production in PMA-Differentiated THP-1 Cells Stimulated with Gramicidin.
THP-1 cells were purchased from the American Type Culture Collection and sub-cultured according to instructions from the supplier. Cells were cultured in complete RPMI 1640 (containing 10% heat inactivated FBS, penicillin (100 units/ml) and streptomycin (100 μg/ml)), and maintained in log phase prior to experimental setup. Prior to the experiment, compounds were dissolved in dimethyl sulfoxide (DMSO) to generate a 30 mM stock. The compound stock was first pre-diluted in DMSO to 3, 0.34, 0.042 and 0.0083 mM intermediate concentrations and subsequently spotted using Echo550 liquid handler into an empty 384-well assay plate to achieve desired final concentration (e.g. 100, 33, 11, 3.7, 1.2, 0.41, 0.14, 0.046, 0.015, 0.0051, 0.0017 μM). DMSO was backfilled in the plate to achieve a final DMSO assay concentration of 0.37%. The plate was then sealed and stored at room temperature until required.
THP-1 cells were treated with PMA (Phorbol 12-myristate 13-acetate) (20 ng/ml) for 16-18 hours. On the day of the experiment the media was removed and adherent cells were detached with trypsin for 5 minutes. Cells were then harvested, washed with complete RPMI 1640, spun down, and resuspended in RPMI 1640 (containing 2% heat inactivated FBS, penicillin (100 units/ml) and streptomycin (100 μg/ml). The cells were plated in the 384-well assay plate containing the spotted compounds at a density of 50,000 cells/well (final assay volume 50 μl). Cells were incubated with compounds for 1 hour and then stimulated with gramicidin (5 μM) (Enzo) for 2 hours. Plates were then centrifuged at 340 g for 5 min. Cell free supernatant (40 μL) was collected using a 96—CHannel PlateMaster (Gilson) and the production of IL-1β was evaluated by HTRF (cisbio). The plates were incubated for 18 h at 4° C. and read using the preset HTRF program (donor emission at 620 nm, acceptor emission at 668 nm) of the SpectraMax i3x spectrophotometer (Molecular Devices, software SoftMax 6). A vehicle only control and a dose titration of CRID3 (100-0.0017 μM) were run concurrently with each experiment.
Procedure 2: IL-1β Production in PMA-Differentiated THP-1 Cells Stimulated with Gramicidin.
THP-1 cells were purchased from the American Type Culture Collection and sub-cultured according to instructions from the supplier. Prior to experiments, cells were cultured in complete RPMI 1640 (containing 10% heat inactivated FBS, penicillin (100 units/ml) and streptomycin (100 μg/ml)), and maintained in log phase prior to experimental setup. Prior to the experiment THP-1 were treated with PMA (Phorbol 12-myristate 13-acetate) (20 ng/ml) for 16-18 hours. Compounds were dissolved in dimethyl sulfoxide (DMSO) to generate a 30mM stock. On the day of the experiment the media was removed and adherent cells were detached with trypsin for 5 minutes. Cells were then harvested, washed with complete RPMI 1640, spun down, resuspended in RPMI 1640 (containing 2% heat inactivated FBS, penicillin (100 units/ml) and streptomycin (100 μg/ml). The cells were plated in a 384-well plate at a density of 50,000 cells/well (final assay volume […]). Compounds were first dissolved in assay medium to obtain a 5× top concentration of 500 μM. 10 step dilutions (1:3) were then undertaken in assay medium containing 1.67% DMSO. 5× compound solutions were added to the culture medium to achieve desired final concentration (e.g. 100, 33, 11, 3.7, 1.2, 0.41, 0.14, 0.046, 0.015, 0.0051, 0.0017 μM). Final DMSO concentration was at 0.37%. Cells were incubated with compounds for 1 hour and then stimulated with gramicidin (5 μM) (Enzo) for 2 hours. Plates were then centrifuged at 340 g for 5 min. Cell free supernatant (40 μL) was collected using a 96—CHannel PlateMaster (Gilson) and the production of IL-1β was evaluated by HTRF (cisbio). […]

[1] = Table B2, class symbols, read-out: hTHP-1 IC50
[2] = Homo sapiens, THP-1, Table B2, class symbols, read-out: hTHP-1 IC50
[3] = Homo sapiens, THP-1, Table B3, hTHP-1 assay, class symbols, read-out: IC50

- pIC50 [1]: 7.40 to 8.10
Compound: CC1(C)CCc2c1nc1c(c2NC(=O)N=S(N)(=O)c2sc(C(C)(O)CO)cc2F)CCC1 (single isomer, unassigned) [Compound 699b, (S, R) and (R, R) or (R, S) and (S, S)-5-(1,2-Dihydroxypropan-2-yl)-N′-((3,3-dimethyl-1,2,3,5,6,7-hexahydrodicyclopenta [b,e]pyridin-8-yl)carbamoyl)-3-fluorotliophene-2-sulfoni midamide]

- pIC50 [2]: 4.52 to 5.30
Compound: Cc1nc2c(c(NC(=O)N=S(N)(=O)c3cc(C(C)(C)O)cs3)c1C(C)C)CCC2 (centres unmarked) [Compound 622, 4-(2-Hydroxypropan-2-yl)-N′-((3-isopropyl-2-methyl-6,7-dihydro-5H-cyclopenta[b]pyridin-4-yl)carbamoyl)thiophene-2-sulfonimidamide]

- pIC50 [2]: 4.52 to 5.30
Compound: CC(C)c1nc2c(cc1NC(=O)N=[S@@](N)(=O)c1cnc(C(C)(C)O)s1)CCC2 [Compound 601b]

- pIC50 (Table B1, class symbols, read-out: Average IC50 of compounds in hTHP-1 assay: hTHP-1 IC50): 4.52 to 5.30
Compound: CC(C)(O)c1ncc(S(N)(=O)=NC(=O)Nc2c3c(nc4c2CCC4)CCC3)s1 (single isomer, unassigned) [Compound 128b, (S) or (R)-N′-((1,2,3,5,6,7-hexahydrodicyclo-penta[b,e]pyridin-8-yl)carbamoyl)-2-(2-hydroxypropan-2-yl)thiazole-5-sulfonimidamide]

- pIC50 (Homo sapiens, THP-1, Table B1, numeric bounds, read-out: Average IC50 of compounds in hTHP-1 assay: hTHP-1 IC50): < 4.52
Compound: CN(C)Cc1ccc(S(N)(=O)=NC(=O)Nc2c3c(nc4c2CCC4)CCC3)cc1 (single isomer, unassigned) [Compound 130a, (S) or (R)-4-((dimethylamino)methyl)-N′-((1,2,3,5,6,7-hexahydrodicyclo-penta[b,e]pyridin-8-yl)carbamoyl)benzene-sulfonamidamide]

- pIC50 (Table B4, class symbols, read-out: hTHP-1 IC50): 6.00 to 6.70
Compound: CCc1c(C(F)(F)F)nc2c(c1NC(=O)N=S(N)(=O)c1nn(CC)cc1F)CCC2 (single isomer, unassigned) [Example 771, (R) or (S)-1-ethyl-N′-((3-ethyl-2-(trifluoromethyl)-6,7-dihydro-5H-cyclopenta[b]pyridin-4-yl)carbamoyl)-4-fluoro-1H-pyrazole-3-sulfonimidamide]

- pIC50 [3]: 5.30 to 6.00
Compound: CC(C)n1nc(S(N)(=O)=NC(=O)Nc2c3c(nc4c2CC[C@H]4C)CCC3)cc1CO (single isomer, unassigned) [Example 643, (R) or (S)-5-(hydroxymethyl)-1-isopropyl-N′-(((R)-3-methyl-1,2,3,5,6,7-hexahydrodicyclopenta[b,e]pyridin-8-yl)carbamoyl)-1H-pyrazole-3-sulfonimidamide]

- pIC50 [3]: 6.00 to 6.70
Compound: C[C@@](O)(CO)c1cc(F)c(S(N)(=O)=NC(=O)Nc2c3c(nc4c2CCC42CC2)CCC3)s1 (stereo partly drawn) [Example 607, 5-((R)-1,2-dihydroxypropan-2-yl)-3-fluoro-N′-((1′,5′,6′,7′-tetrahydro-2′H-spiro[cyclopropane-1,3′-dicyclopenta[b,e]pyridin]-8′-yl)carbamoyl)thiophene-2-sulfonimidamide]

- pIC50 [1]: 5.30 to 6.00
Compound: Cc1c(C2CC2)nc2c(c1NC(=O)N=S(N)(=O)c1cc(C(C)(C)O)cs1)CCC2C (centres unmarked) [Compound 656, N′-((2-cyclopropyl-3,7-dimethyl-6,7-dihydro-5H-cyclopenta[b]pyridin-4-yl)carbamoyl)-4-(2-hydroxypropan-2-yl)thiophene-2-sulfonimidamide]

- pIC50 [3]: 5.30 to 6.00
Compound: Cc1c(C2(F)CC2)nc2c(c1NC(=O)N=S(N)(=O)c1sc(C(C)(C)O)cc1F)CCC2 (centres unmarked) [Example 612, 3-Fluoro-N′-((2-(1-fluorocyclopropyl)-3-methyl-6,7-dihydro-5H-cyclopenta[b]pyridin-4-yl)carbamoyl)-5-(2-hydroxypropan-2-yl)thiophene-2-sulfonimidamide]

- pIC50 [1]: 6.00 to 6.70
Compound: Cc1c(C2CC2)nc2c(c1NC(=O)N=S(N)(=O)c1cc(C(C)(C)O)cs1)CCC2C (single isomer, unassigned) [Compound 656a, (R, R) or (R, S) or (S, R) or (S, S)-N′-((2-Cyclopropyl-3,7-dimethyl-6,7-dihydro-5H-cyclopenta[b]pyridin-4-yl)carbamoyl)-4-(2-hydroxypropan-2-yl)thiophene-2-sulfonimidamide]

- pIC50 [2]: 5.30 to 6.00
Compound: CC(C)(O)c1cc(Cl)c(S(N)(=O)=NC(=O)Nc2c3c(nc4c2CCC4)CCC3)s1 (centres unmarked) [Compound 691, 3-Chloro-N′-((1,2,3,5,6,7-hexahydrodicyclopenta[b, e]pyridin-8-yl)carbamoyl)-5-(2-hydroxypropan-2-yl)thiophene-2-sulfonimidamide]

- pIC50 [2]: 4.52 to 5.30
Compound: CC1(C)CCc2c1nc1c(c2NC(=O)N=S(N)(=O)c2cnn(C(F)F)c2)CCC1 (centres unmarked) [Compound 637, 1-(Difluoromethyl)-N′-((3,3-dimethyl-1,2,3,5,6,7-hexahydrodicyclopenta[b,e]pyridin-8-yl)carbamoyl)-1H-pyrazole-4-sulfonimidamide]

- pIC50 [1]: 4.52 to 5.30
Compound: CC(C)(O)c1cnc(S(N)(=O)=NC(=O)Nc2c3c(nc4c2CCC4(C)C)CCC3)s1 (single isomer, unassigned) [Compound 686b, (R) or (S)-N′-((3,3-dimethyl-1,2,3,5,6,7-hexahydrodicyclopenta [b,e]pyridin-8-yl)carbamoyl)-5-(2-hydroxypropan-2-yl)thiazole-2-sulfonimidamide]

- pIC50 [2]: 6.70 to 7.40
Compound: CC(C)(O)c1cc(F)c([S@](N)(=O)=NC(=O)Nc2c3c(nc(C4CC4)c2C2CC2)CCC3)s1 [Compound 727b]

- pIC50 [3]: 5.30 to 6.00
Compound: CC1(C)CCc2c1nc1c(c2NC(=O)N=S(N)(=O)c2cnn3c2OC[C@H](O)C3)CCC1 (stereo partly drawn) [Example 603, (6R)-N′-((3,3-dimethyl-1,2,3,5,6,7-hexahydrodicyclopenta[b,e]pyridin-8-yl)carbamoyl)-6-hydroxy-6,7-dihydro-5H-pyrazolo[5,1-b][1,3]oxazine-3-sulfonimidamide]

- pIC50 (Homo sapiens, THP-1, Table B3, hTHP-1 assay, numeric values, read-out: IC50): < 4.52
Compound: CC(C)(O)c1cnc(S(N)(=O)=NC(=O)Nc2c3c(nc4c2CCC4O)CCC3)s1 (centres unmarked) [Example 635, N′-((3-hydroxy-1,2,3,5,6,7-hexahydrodicyclopenta[b,e]pyridin-8-yl)carbamoyl)-5-(2-hydroxypropan-2-yl)thiazole-2-sulfonimidamide]

- pIC50 (Homo sapiens, THP-1, Table B1, class symbols, read-out: Average IC50 of compounds in hTHP-1 assay: hTHP-1 IC50): 6.70 to 7.40
Compound: CC(C)(O)c1cc(F)c(S(N)(=O)=NC(=O)Nc2c3c(nc4c2CCC4)CCC3)s1 (centres unmarked) [Compound 105, 3-fluoro-N′-((1,2,3,5,6,7-hexahydrodicyclopenta[b,e]pyridin-8-yl)carbamoyl)-5-(2-hydroxypropan-2-yl)thiophene-2-sulfonimidamide]

- pIC50 [2]: 6.00 to 6.70
Compound: C[C@@](O)(CO)c1cc(F)c(S(N)(=O)=NC(=O)Nc2c3c(nc4c2CCC42CC2)CCC3)s1 (some centres unmarked) [Compound 716b]

- pIC50 [3]: 5.30 to 6.00
Compound: Cc1c(C(F)(F)F)nc2c(c1NC(=O)N=S(N)(=O)c1cnn3c1OCCC3)CCC2 (single isomer, unassigned) [Example 657, (R) or (S)-N′-((3-((3-2-(trifluoromethyl)-6,7-dihydro-5H-cyclopenta[b]pyridin-4-yl)carbamoyl)-6,7-dihydro-5H-pyrazolo[5,1-b][1,3]oxazine-3-sulfonimidamide]
